The assay concerns the target JAK2 (Homo sapiens, UniProt O60674). Kind of assay: cell-free kinase activity assay with purified JAK2 (HotSpot, Reaction Biology). It is filed as biochemical.

Sequence of JAK2 (O60674 whole entry): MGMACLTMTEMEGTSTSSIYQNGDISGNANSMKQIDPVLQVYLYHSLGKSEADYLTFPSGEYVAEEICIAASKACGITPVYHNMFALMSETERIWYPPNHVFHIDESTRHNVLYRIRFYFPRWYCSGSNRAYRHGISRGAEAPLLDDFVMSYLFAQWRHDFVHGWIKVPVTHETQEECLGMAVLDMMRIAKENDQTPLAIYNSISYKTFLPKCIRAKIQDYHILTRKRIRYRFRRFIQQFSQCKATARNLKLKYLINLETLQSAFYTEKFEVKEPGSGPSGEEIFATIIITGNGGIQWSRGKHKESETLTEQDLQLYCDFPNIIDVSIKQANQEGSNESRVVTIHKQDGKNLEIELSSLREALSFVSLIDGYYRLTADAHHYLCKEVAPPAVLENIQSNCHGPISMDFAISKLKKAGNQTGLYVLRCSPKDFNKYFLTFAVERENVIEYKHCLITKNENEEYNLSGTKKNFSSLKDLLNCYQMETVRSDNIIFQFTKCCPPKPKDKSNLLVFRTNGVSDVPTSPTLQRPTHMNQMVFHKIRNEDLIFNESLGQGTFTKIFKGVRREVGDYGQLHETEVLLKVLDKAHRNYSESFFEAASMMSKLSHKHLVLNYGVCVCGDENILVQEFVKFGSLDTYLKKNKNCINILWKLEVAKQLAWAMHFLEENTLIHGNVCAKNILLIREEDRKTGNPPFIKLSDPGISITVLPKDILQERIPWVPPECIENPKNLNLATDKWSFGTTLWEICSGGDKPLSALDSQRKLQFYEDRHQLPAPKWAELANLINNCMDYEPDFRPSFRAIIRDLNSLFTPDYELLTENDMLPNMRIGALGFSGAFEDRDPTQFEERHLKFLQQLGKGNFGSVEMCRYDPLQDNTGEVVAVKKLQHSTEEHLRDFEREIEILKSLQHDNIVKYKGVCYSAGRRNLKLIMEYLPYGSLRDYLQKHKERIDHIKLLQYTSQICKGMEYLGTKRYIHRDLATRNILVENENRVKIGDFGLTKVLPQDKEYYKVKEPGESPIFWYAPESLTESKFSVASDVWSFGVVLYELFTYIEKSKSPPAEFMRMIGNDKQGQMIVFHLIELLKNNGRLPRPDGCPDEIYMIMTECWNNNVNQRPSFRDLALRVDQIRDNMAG

`COc1cc(/C=C/C(=O)CC(=O)/C=C/c2ccc(O)c(OC)c2)ccc1O` [curcumin]: the IC50 (in general, the concentration that inhibits the measured activity by half) was about 8 µM.
